Results published in ChEMBL document CHEMBL4811216, “Chemotherapy for human schistosomiasis: how far have we come? What's new? Where do we go from here?” (RSC Med Chem, 2020).

Experiments:
Schistosoma mansoni [1] = assay: Antischistosomal activity against Schistosoma mansoni assessed as worm death at 50 uM in presence of red blood cells relative to control; format: functional
Schistosoma mansoni [2] = assay: Antischistosomal activity against adult Schistosoma mansoni assessed as worm death at 12.5 uM incubated for 120 hrs relative to control; format: functional
Schistosoma mansoni [3] = assay: Antischistosomal activity against juvenile Schistosoma mansoni assessed as worm death at 12.5 uM incubated for 120 hrs relative to control; format: functional
[4] = target: T1, Thioredoxin glutathione reductase (Schistosoma mansoni, UniProt Q962Y6); assay: Inhibition of Schistosoma mansoni thioredoxin glutathione reductase incubated for 30 mins by DTNB assay
T1 sequence (Q962Y6 whole entry): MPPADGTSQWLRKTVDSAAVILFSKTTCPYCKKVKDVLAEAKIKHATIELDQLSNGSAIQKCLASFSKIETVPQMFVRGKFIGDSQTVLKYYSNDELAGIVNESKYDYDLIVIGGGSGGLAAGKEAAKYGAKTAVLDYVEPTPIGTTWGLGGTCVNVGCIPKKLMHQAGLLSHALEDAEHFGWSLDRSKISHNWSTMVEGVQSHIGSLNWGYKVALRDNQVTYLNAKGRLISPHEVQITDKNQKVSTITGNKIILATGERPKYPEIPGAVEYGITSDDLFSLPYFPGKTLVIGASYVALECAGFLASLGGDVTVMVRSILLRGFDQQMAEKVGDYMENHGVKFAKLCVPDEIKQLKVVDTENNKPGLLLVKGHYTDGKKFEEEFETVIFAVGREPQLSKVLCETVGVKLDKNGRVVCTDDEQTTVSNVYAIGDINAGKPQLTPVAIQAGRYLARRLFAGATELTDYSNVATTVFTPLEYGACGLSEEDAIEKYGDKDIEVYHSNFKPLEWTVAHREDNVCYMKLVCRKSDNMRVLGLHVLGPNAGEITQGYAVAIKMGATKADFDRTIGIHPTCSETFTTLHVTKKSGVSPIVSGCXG

Schistosoma mansoni [5] = assay: Antischistosomal activity against Schistosoma mansoni Schistosomula assessed as worm death at 12.5 uM incubated for 120 hrs relative to control; format: functional
Schistosoma japonicum [6] = assay: Antischistosomal activity against adult Schistosoma japonicum assessed as worm death at 12.5 uM incubated for 120 hrs relative to control; format: functional
Schistosoma mansoni [7] = assay: Antischistosomal activity against Schistosoma mansoni by confocal laser scanning microscopy; format: functional, organism-based
Schistosoma mansoni [8] = assay: Antischistosomal activity against adult Schistosoma mansoni Puerto-Rican incubated for 7 days by stereomicroscopy; format: functional; settings: time 7 day
Schistosoma mansoni [9] = assay: Antischistosomal activity against Schistosoma mansoni schistosomula incubated for 24 hrs by celltiter-glo reagent based assay; format: functional, organism-based
[10] = target: T2, ATP-diphosphohydrolase 1 (Schistosoma mansoni) (UniProt Q7YTA4); assay: Inhibition of Schistosoma mansoni ATPDase1 at 40 uM preincubated for 30 mins followed by addition of ATP/ADP by spectrophotometric method relative to control
T2 sequence (whole entry): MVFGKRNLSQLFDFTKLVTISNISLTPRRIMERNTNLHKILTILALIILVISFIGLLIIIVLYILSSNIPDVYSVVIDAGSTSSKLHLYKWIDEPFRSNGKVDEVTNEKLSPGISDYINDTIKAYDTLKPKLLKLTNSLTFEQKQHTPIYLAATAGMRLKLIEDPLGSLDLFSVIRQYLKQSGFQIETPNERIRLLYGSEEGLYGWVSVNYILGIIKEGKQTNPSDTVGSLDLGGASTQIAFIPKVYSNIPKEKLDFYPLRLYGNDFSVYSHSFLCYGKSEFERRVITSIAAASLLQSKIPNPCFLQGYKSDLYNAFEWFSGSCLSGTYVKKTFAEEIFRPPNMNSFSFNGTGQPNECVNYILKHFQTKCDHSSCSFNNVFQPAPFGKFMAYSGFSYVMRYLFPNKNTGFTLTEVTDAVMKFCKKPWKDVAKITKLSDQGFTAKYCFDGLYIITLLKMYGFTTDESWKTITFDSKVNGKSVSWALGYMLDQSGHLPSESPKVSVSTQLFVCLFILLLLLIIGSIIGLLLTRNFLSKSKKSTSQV

Schistosoma mansoni [11] = assay: Antischistosomal activity against Schistosoma mansoni BH assessed as extensive tegumental alteration at 25 uM measured after 24 hrs by light microscopy relative to control; format: functional
Schistosoma mansoni [12] = assay: Antischistosomal activity against Schistosoma mansoni BH assessed as reduction in motor activity at 25 uM measured after 24 hrs by light microscopy relative to control; format: functional; parameters: scale not given: the % may be the effect or the level left
ATP-diphosphohydrolase 1 = target: T3, ATP-diphosphohydrolase 1 (Schistosoma mansoni, UniProt Q7YTA4); assay: Inhibition of Schistosoma mansoni ATPDase1 preincubated for 30 mins followed by addition of ATP/ADP by spectrophotometric method
T3 sequence (Q7YTA4 whole entry): T2 sequence (whole entry)

Schistosoma mansoni [13] = assay: Antischistosomal activity against Schistosoma mansoni Schistosomula assessed as worm death at 10 uM incubated for 24 hrs relative to control; format: functional
Schistosoma mansoni [14] = assay: Antischistosomal activity against juvenile Schistosoma mansoni assessed as worm death at 10 uM incubated for 72 hrs relative to control; format: functional
Schistosoma mansoni [15] = assay: Antischistosomal activity against adult Schistosoma mansoni assessed as worm death at 10 uM incubated for 144 hrs relative to control; format: functional
Schistosoma haematobium [16] = assay: Antischistosomal activity against Schistosoma haematobium assessed as worm death at 10 uM incubated for 120 hrs relative to control; format: functional
Schistosoma japonicum [17] = assay: Antischistosomal activity against Schistosoma japonicum assessed as worm death at 10 uM incubated for 120 hrs relative to control; format: functional; settings: for mortality at 10 µM: Schistosoma japonicum
Schistosoma mansoni [18] = assay: Antischistosomal activity against adult Schistosoma mansoni assessed as worm death at 10 uM incubated for 120 hrs relative to control; format: functional
Schistosoma mansoni [19] = assay: Antischistosomal activity against juvenile Schistosoma mansoni assessed as worm death at 10 uM incubated for 24 hrs relative to control; format: functional
Schistosoma mansoni [20] = assay: Antischistosomal activity against Schistosoma mansoni assessed as worm death at 10 uM incubated for 72 hrs relative to control; format: functional
Schistosoma haematobium [21] = assay: Antischistosomal activity against Schistosoma haematobium assessed as worm death at 10 uM incubated for 96 hrs relative to control; format: functional
Schistosoma mansoni [22] = assay: Antischistosomal activity against Schistosoma mansoni assessed as worm death at 10 uM incubated for 48 hrs relative to control; format: functional
[23] = Inhibition of NACE in Schistosoma mansoni using 1-N6-ethenonicotinamide adenine dinucleotide as substrate incubated for 30 mins by fluorometric assay
[24] = Inhibition of C-terminal His6-tagged Schistosoma mansoni NACE expressed in Pichia pastoris using 1-N6-ethenonicotinamide adenine dinucleotide as substrate by fluorometric assay
Schistosoma mansoni [25] = assay: Antischistosomal activity against juvenile Schistosoma mansoni assessed as worm death at 10 uM incubated for 120 hrs relative to control; format: functional
Schistosoma haematobium [26] = assay: Antischistosomal activity against Schistosoma haematobium assessed as worm death at 10 uM incubated for 144 hrs relative to control; format: functional
Schistosoma mansoni [27] = assay: Antischistosomal activity against Schistosoma mansoni BH assessed as worm death at 50 uM measured after 72 to 120 hrs by inverted optical microscopic method relative to control; format: functional; settings: time 72-120 hrs

For `CC1=C(Cc2ccc(C(F)(F)F)cc2)C(=O)c2cc(C)cnc2C1=O`, the Activity (Schistosoma mansoni [1]) was 100%.
With `CCOC(=O)C(C(=O)OCC)C1=C(Br)C2=NOC3c4ccccc4C(=O)C(=C1)C23` (stereo not given) the mortality at 12.5 µM (Schistosoma mansoni [2]) was 28%, the mortality at 12.5 µM (Schistosoma mansoni [3]) was 100% and the IC50 [4] was 140 nM. For the same molecule, the mortality at 12.5 µM (Schistosoma mansoni [5]) was 96% and the mortality at 12.5 µM (Schistosoma japonicum [6]) was 100%.
For `COc1cc(/C=N/NC(=O)c2ccc(C(C)(C)C)cc2)ccc1O`, the IC50 (Schistosoma mansoni [7]) was 47900 nM.
In the case of `COC1=C(Cc2ccc(OC)cc2)C(=O)C2=C(NCCS2(=O)=O)C1=O`, the Activity (Schistosoma mansoni [8]) is reported as 100% and the IC50 (Schistosoma mansoni [9]) is reported as 13900 nM.
Work on `COc1cc(O)cc(O)c1C(=O)/C=C/c1ccccc1` [CARDAMOMIN] yielded an inhibition [10] of 82%, an Activity (Schistosoma mansoni [11]) of 100% and an Activity (Schistosoma mansoni [12]) of 100%. The IC50 (ATP-diphosphohydrolase 1) was 23500 nM.
For `O=[N+]([O-])c1ccc2c(c1)S(=O)(=O)C=C2`, the mortality at 10 µM (Schistosoma mansoni [13]) was 100%, the mortality at 10 µM (Schistosoma mansoni [14]) was 100% and the mortality at 10 µM (Schistosoma mansoni [15]) was 76%. For the same molecule, the mortality at 10 µM (Schistosoma haematobium [16]) was 85%, the IC50 [4] was 2010 nM and the mortality at 10 µM (Schistosoma japonicum [17]) was 69%.
Molecule `CCN(c1ccccc1)S(=O)(=O)c1ccc(NC(=O)c2nc(S(C)(=O)=O)ncc2Cl)cc1` has a mortality at 10 µM (Schistosoma mansoni [18]) of 78%, a mortality at 10 µM (Schistosoma mansoni [13]) of 100% and a mortality at 10 µM (Schistosoma mansoni [19]) of 100%. For the same molecule, the mortality at 10 µM (Schistosoma haematobium [16]) was 94%, the IC50 [4] was 210 nM and the mortality at 10 µM (Schistosoma japonicum [17]) was 50%.
Work on `O=c1c(Cl)c(-n2cc(CO)nn2)cnn1-c1ccccc1` yielded a mortality at 10 µM (Schistosoma mansoni [13]) of 100%, an Activity (Schistosoma mansoni [20]) of 100% and an Activity (Schistosoma haematobium [21]) of 100%. It also gave an Activity (Schistosoma mansoni [22]) of 100%, an IC50 [4] of 2840 nM and an Activity (Schistosoma japonicum [17]) of 70%.
Molecule `O=C(Nc1nc(=O)c2ccccc2s1)c1ccco1` has an IC50 [23] of 20000 nM and an IC50 [24] of 2200 nM.
`COC(=O)CS(=O)(=O)c1nnc(C(Cc2ccccc2)NC(=O)OC(C)(C)C)o1` (stereo not given) showed a mortality at 10 µM (Schistosoma mansoni [18]) of 62%, a mortality at 10 µM (Schistosoma mansoni [13]) of 99% and a mortality at 10 µM (Schistosoma mansoni [25]) of 39%. For the same molecule, the mortality at 10 µM (Schistosoma haematobium [26]) was 67%, the IC50 [4] was 330 nM and the mortality at 10 µM (Schistosoma japonicum [17]) was 65%.
`O=C1CS/C(=N\N=C/c2cccc3c2OCO3)N1c1ccc(Br)cc1` showed an Activity (Schistosoma mansoni [27]) of 83.3%.
